According to US9115092B2, “Substituted quinazoline and pyrido-pyrimidine derivatives” (Asana Biosciences, LLC, priority 2010, dated 2015):

Columns and labels:
[1] = system: pAKT(5473) in PC3 tumor; assay: In vivo PK/PD study, PC3 tumor bearing mice, pAkt(5473); settings: Mus musculus, 50 mg/kg po single dose
Method: (§1) PC3 cells were cultured at 37° C. in a 5% CO2 incubator using Hams F12 K medium. Ten million (10^7) cells were injected subcutaneously to the right flank region of athymic male mice (Harlan, age: 6-7 weeks, weight: about 20 g). Tumor bearing mice were randomized when the tumor volume reached about 250 mm^3 and three mice were used per each time point. Test compounds of formula (I) were formulated in 40% HPCD in 1×PBS, pH 7.4 and dosed orally at 50 mg/kg single dose (dose volume−10 mL/kg). Plasma and tumor samples were collected at 0 (vehicle control animals), 1, 4 and 24 hours post dosing. Blood was drawn (retro orbital) to a tube containing 0.2% EDTA for plasma collection. The tumor was excised from the mouse and immediately frozen in liquid nitrogen for PD analysis. Tumor and plasma drug concentrations were measured for PK analysis using LC-MS.
Snap frozen tumor samples were pulverized in a mortar (Belart) containing liquid nitrogen and tumor powder was stored at −80° C. until analysis. Pre coated ELISA kits (Cell Signaling Technology; pAKT(T308), CST#7135; pAKT(5473), CST#7134 and pS6RP, CST#7205) were used for PD analysis. Tumor powder was transferred to Eppendorf® tubes and lysis buffer (1 mL) was added to the powder. […] The detection for pAKT was based on chemiluminescence and pS6RP was based on absorbance. […]

[2] = system: pS6RP in PC3 tumor; assay: In vivo PK/PD study, PC3 tumor bearing mice, pS6RP; settings: Mus musculus
Method: as §1
Snap frozen tumor samples were pulverized in a mortar (Belart) containing liquid nitrogen and tumor powder was stored at −80° C. until analysis. Pre coated ELISA kits (Cell Signaling Technology; pAKT(T308), CST#7135; pAKT(5473), CST#7134 and pS6RP, CST#7205) were used for PD analysis. Tumor powder was transferred to Eppendorf® tubes and lysis buffer (1 mL) was added to the powder. Protease and phosphatase inhibitors (SIGMA) and phenylmethanesulfonylfluoride (PMSF) were added to tumor powder and mixed by vortexing followed by sonication (15 sec). Samples were kept on an ice bath for 30 min. Supernatant was separated after centrifugation at 10,000 rpm for 20 min at 4° C. Supernatant was re-centrifuged and fresh supernatant was aliquoted to different tubes. Total protein was estimated using a BCA kit (Thermo Scientific) and 50 μg total protein was loaded to each well. ELISA analysis was carried out as per manufacturer's instructions. The detection for pAKT was based on chemiluminescence and pS6RP was based on absorbance. Qualitative assessments of the suppression of pAKT(T308), pAKT(5473), and pS6RP were also carried out by standard Western blot analyses.
For example, the compound of Example 1, at 50 mg/kg po, caused about 50% inhibition of pAkt(5473) at 1 and 4 hours and >50% inhibition of pS6RP at 1, 4 and 24 hours. Also, the compound of Example 2, at 50 mg/kg po, caused about 25-30% inhibition of pAkt(5473) at 4 and 24 hours and >50% inhibition of pS6RP at 1, 4 and 24 hours. The compound of example 51, at 30 mg/kg po, caused >50% inhibition of pS6RP at 2, 4 and 24 hours. Also, the compounds of examples 133, 146, 147, and 228, at 50 mg/kg po, each caused >50% inhibition of pS6RP at 3 and 8 hours.

[3] = target: PI3 kinase isoform β (Homo sapiens, UniProt P42338); assay: PI3 Kinase TR-FRET assay, isoform β; assay type: biochemical; settings: read-out: inhibition of PI3 kinase isoform β, IC50
Method: (§2) The ability of compounds of the invention to inhibit PI3K activity was determined in a homogeneous TR-FRET assay using a PI3K assay kit (Millipore, USA; cat #33-016) according to manufacturer's instructions. PI3-Kinases (isoforms α, β, γ and δ) catalyze the phosphorylation of phosphatidylinositol, PIP2 to PIP3 in the presence of ATP and Mg^2+. The PIP3 product is detected by displacement of biotin-PIP3 from an energy transfer complex consisting of Europium labeled anti-GST monoclonal antibody, a GST-tagged PH domain, biotinylated PIP3 and Streptavidin-APC. Excitation of Europium in the complex results in an energy transfer to the APC and a fluorescence emission at 665 nm. The PIP3 product displaces biotin-PIP3 from the complex resulting in a loss of energy transfer and thus a decrease in signal.
(§3) To test for the ability of compounds to inhibit the activity of PI3Kα (wild-type), exemplary compounds of formula (I) were dissolved in DMSO and directly distributed into 384-well plates at a volume of 0.5 μL. 14.5 μL of P110/P85α/PIP2 mixture in buffer (obtained from the Millipore kit) containing MgCl2 (40 mM) and DTT (5 mM) was added to compound wells and incubated for 60 min at room temperature. P110/P85α was expressed in SF9 insect cells and purified nickel column extraction. Five ng of wild-type P110/P85α was used in the assay. The kinase reaction was started by the addition of ATP. The assay concentrations of both PIP2 and ATP were 10 μM. The reaction mixture was incubated for 30 min at room temperature and was terminated by the addition of stop mix and detection mix. Fluorescence was measured at 615 and 665 nm upon excitation at 340 nm in a Victor™ V5 fluorometer (Perkin Elmer, USA). The fluorescence emission ratio at 665 to 615 nm, proportional to the kinase activity, was plotted against the compound concentration to generate dose-response curves and IC50 values were determined using GraphPad Prism® 5 software.
(§4) The activity of PI3 kinase isoforms β, γ and δ were assayed in a similar manner to the assay protocol described above for PI3Kα, by substituting the appropriate p110/p85 isoform for the p110α/p85α. Compounds of formula (I) caused inhibition of PI3 kinase isoforms β, γ and δ as determined by these assays. For example, the compounds of examples 3, 51, 54, 111, 113, 115, and 253 each caused inhibition of PI3 kinase isoform β with IC50 values <50 nM. The compounds of examples 104, 133, 146 and 152 each caused inhibition of PI3 kinase isoform β with IC50 values <500 nM. The compounds of examples 3, 51, 54, 104, 111, 113, 115, 133, 253, and 152 each caused inhibition of PI3 kinase isoform γ with IC50 values <500 nM. […] The compounds of examples 2, 3, 51, 54, 111, 113, and 253 each caused inhibition of PI3 kinase isoform […] with IC50 values >1 μM.

[4] = target: PI3 kinase isoform δ (Homo sapiens, UniProt O00329); assay: PI3 Kinase TR-FRET assay, isoform δ; assay type: biochemical; settings: read-out: inhibition of PI3 kinase isoform δ, IC50
Method: as §2, §3, §4

[5] = system: pAkt(T308) in BT474 tumor; assay: In vivo PK/PD study, BT474 tumor-bearing xenograft mice, pAkt(T308); settings: 2 weeks at 40 mg/kg bid po
Method: as §1
(§5) Snap frozen tumor samples were pulverized in a mortar (Belart) containing liquid nitrogen and tumor powder was stored at −80° C. until analysis. […] The detection for pAKT was based on chemiluminescence and pS6RP was based on absorbance. […]
(§6) In vivo pharmacokinetic/pharmacodynamic (PK/PD) studies were also carried out using BT474 tumor cells and the corresponding tumor-bearing xenograft mice, and compounds of the invention were determined to be active in this assay. […]

[6] = system: pAkt(5473) in BT474 tumor; assay: In vivo PK/PD study, BT474 tumor-bearing xenograft mice, pAkt(5473); settings: 2 weeks at 40 mg/kg bid po
Method: as §1, §5, §6

[7] = system: BT474 tumor cells; assay: In vivo efficacy study (tumor growth suppression), BT474 xenograft; settings: BT474 xenograft mice, after 14 days of dosing at 40 mg/kg bid po
[8] = 50 mg/kg po single dose, at 1, 4 and 24 hours

Sequence of PI3 kinase isoform β (P42338 whole entry, the tested form may be a part, canonical isoform): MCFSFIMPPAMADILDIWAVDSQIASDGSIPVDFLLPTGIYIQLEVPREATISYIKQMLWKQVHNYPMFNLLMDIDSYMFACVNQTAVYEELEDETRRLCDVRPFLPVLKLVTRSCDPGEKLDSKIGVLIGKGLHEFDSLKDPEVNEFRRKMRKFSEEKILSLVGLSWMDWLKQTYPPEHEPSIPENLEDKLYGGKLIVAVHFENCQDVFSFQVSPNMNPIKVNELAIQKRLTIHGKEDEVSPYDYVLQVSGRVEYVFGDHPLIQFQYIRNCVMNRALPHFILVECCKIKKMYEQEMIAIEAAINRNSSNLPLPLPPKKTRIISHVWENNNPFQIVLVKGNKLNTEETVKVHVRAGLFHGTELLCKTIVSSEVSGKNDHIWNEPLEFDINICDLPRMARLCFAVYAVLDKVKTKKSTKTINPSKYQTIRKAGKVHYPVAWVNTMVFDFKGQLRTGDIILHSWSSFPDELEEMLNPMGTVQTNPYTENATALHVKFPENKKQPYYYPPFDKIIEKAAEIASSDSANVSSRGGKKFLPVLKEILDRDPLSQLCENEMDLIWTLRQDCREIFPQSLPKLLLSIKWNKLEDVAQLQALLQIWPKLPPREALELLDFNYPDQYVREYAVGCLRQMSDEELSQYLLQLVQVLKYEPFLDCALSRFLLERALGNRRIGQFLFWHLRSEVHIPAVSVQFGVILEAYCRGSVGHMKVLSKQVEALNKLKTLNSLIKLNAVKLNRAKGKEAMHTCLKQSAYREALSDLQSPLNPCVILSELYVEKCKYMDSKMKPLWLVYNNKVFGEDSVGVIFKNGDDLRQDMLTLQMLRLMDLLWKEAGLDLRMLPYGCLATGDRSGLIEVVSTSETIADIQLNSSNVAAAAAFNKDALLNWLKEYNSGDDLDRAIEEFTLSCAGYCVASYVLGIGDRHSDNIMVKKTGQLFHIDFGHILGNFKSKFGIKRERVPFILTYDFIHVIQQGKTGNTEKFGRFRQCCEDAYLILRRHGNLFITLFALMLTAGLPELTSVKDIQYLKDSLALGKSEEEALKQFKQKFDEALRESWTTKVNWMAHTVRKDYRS
Sequence of PI3 kinase isoform β (P27986 whole entry partner, the tested form may be a part, canonical isoform): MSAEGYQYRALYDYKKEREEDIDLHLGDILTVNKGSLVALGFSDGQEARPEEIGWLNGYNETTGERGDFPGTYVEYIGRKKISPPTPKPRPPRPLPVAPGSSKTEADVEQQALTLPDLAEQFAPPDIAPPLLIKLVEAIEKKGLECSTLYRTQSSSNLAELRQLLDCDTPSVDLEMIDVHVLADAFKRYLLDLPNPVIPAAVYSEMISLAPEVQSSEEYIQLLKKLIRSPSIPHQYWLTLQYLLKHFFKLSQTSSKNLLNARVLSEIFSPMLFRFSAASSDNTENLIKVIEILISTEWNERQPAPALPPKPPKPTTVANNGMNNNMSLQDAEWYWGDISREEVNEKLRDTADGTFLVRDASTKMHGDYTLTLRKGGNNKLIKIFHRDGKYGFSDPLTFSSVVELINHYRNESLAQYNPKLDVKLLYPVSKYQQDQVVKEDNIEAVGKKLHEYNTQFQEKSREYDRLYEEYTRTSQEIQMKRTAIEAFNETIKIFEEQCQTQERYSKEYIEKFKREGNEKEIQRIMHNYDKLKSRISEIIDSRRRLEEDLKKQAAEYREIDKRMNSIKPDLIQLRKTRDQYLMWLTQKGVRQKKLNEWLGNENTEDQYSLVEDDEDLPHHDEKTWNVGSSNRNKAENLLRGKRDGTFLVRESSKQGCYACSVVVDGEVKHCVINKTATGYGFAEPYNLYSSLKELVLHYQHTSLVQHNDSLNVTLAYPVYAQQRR
Sequence of PI3 kinase isoform δ (O00329 whole entry, canonical isoform): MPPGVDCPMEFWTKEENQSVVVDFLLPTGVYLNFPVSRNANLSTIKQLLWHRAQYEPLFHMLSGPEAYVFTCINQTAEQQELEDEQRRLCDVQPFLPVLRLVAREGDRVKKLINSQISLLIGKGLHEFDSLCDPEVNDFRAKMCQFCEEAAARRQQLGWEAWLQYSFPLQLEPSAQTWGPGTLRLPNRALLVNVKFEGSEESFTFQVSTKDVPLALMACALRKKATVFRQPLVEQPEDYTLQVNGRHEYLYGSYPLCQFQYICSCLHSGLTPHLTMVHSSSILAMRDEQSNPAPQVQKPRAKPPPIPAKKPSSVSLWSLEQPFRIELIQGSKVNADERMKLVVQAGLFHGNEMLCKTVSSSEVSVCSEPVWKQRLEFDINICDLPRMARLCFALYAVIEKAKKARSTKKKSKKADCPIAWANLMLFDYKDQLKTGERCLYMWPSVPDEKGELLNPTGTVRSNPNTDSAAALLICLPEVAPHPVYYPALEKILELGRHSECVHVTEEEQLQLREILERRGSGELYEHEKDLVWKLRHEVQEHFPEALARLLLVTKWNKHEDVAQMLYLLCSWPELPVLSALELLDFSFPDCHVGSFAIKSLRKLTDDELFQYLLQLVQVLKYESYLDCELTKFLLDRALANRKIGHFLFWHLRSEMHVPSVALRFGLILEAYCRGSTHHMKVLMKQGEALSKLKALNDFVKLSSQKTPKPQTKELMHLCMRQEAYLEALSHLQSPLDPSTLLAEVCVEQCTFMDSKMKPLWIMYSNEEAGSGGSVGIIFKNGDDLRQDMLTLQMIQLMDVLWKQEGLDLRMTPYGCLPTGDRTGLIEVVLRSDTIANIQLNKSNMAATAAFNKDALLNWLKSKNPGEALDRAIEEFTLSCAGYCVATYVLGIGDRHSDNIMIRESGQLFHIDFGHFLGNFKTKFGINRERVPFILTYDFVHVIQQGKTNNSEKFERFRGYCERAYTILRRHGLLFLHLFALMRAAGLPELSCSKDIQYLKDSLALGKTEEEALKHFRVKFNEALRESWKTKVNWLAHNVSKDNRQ
Sequence of PI3 kinase isoform δ (P27986 whole entry partner, canonical isoform): as the sequence (P27986 whole entry partner, the tested form may be a part, canonical isoform) above

Structure (SMILES)	IC50 [3] [nM]	IC50 [4] [nM]	inhibition at 50 mg/kg [2, 8] [%]	suppression of pAkt(T308) in tumor tissue samples by Western blot [5]	suppression of pAkt(5473) in tumor tissue samples by Western blot [6]	tumor growth inhibition relative to vehicle control group [7]	inhibition at 50 mg/kg ([2]; 50 mg/kg po, at 3 and 8 hours) [%]	also measured
CN(C)C(=O)c1ccc(NC(=O)Nc2ccc(-c3nc(N4CCOCC4)c4ccc(-c5cncnc5)cc4n3)cc2)cc1 [Example 1, N,N-Dimethyl-4-(3-{4-[4-morpholin-4-yl-7-pyrimidin-5-yl-quinazolin-2-yl)-phenyl]-ureido}-benzamide]	–	–	> 50	–	–	–	–	inhibition at 50 mg/kg ([1]; at 1 and 4 hours): ~50%
Cc1ccc(-c2ccc3c(N4CCOCC4)nc(-c4ccc(NC(=O)Nc5ccc(C(=O)N(C)C)cc5)cc4)nc3c2)o1 [Example 2, N,N-Dimethyl-4-(3-{4-[7-(5-methyl-furan-2-yl)-4-morpholin-4-yl-quinazolin-2-yl]-phenyl}-ureido)-benzamide]	< 1000	> 1000	> 50	significant suppression	significant suppression	about 65%	–	inhibition at 50 mg/kg ([1]; at 4 and 24 hours): 25 to 30%
CN(C)C(=O)c1ccc(NC(=O)Nc2ccc(-c3nc(N4CCOCC4)c4ccc(-c5ccco5)cc4n3)cc2)cc1 [Example 51, 4-{3-[4-(7-furan-2-yl-4-morpholin-4-yl-quinazolin-2-yl)-phenyl]-ureido}-N,N-dimethyl-benzamide]	–	> 1000	–	significant suppression	significant suppression	about 70%	–	inhibition at 30 mg/kg ([2]; 30 mg/kg po, at 2, 4 and 24 hours): > 50%
CN(C)C(=O)c1ccc(NC(=O)Nc2ccc(-c3nc(N4CCOCC4)c4ccc(-c5cncnc5)cc4n3)cc2)c(F)c1 [Example 133, 3-fluoro-N,N-dimethyl-4-(3-(4-(4-morpholino-7-(pyrimidin-5-yl)quinazolin-2-yl)phenyl)ureido)-benzamide]	< 500	–	–	–	–	–	> 50	–

Further lines, with some results ahead:

IC50 [3] [nM]	IC50 [4] [nM]	Structure (SMILES)	inhibition at 50 mg/kg [2, 8] [%]	suppression of pAkt(T308) in tumor tissue samples by Western blot [5]	suppression of pAkt(5473) in tumor tissue samples by Western blot [6]	tumor growth inhibition relative to vehicle control group [7]	inhibition at 50 mg/kg ([2]; 50 mg/kg po, at 3 and 8 hours) [%]	also measured
< 500	–	CN(C)C(=O)c1ccc(NC(=O)Nc2ccc(-c3nc(N4CCOCC4)c4ccc(-c5cccnc5F)cc4n3)cc2)c(F)c1 [Example 146, 3-fluoro-4-(3-(4-(7-(2-fluoropyridin-3-yl)-4-morpholino-quinazolin-2-yl)phenyl)ureido)-N,N-dimethyl-benzamide]	–	–	–	–	> 50	–
< 500	–	CN(C)C(=O)c1ccc(NC(=O)Nc2ccc(-c3nc(N4CCOCC4)c4ccc(-c5cccnc5)cc4n3)cc2)c(F)c1 [Example 152, 3-fluoro-N,N-dimethyl-4-(3-(4-(4-morpholino-7-(pyridin-3-yl)quinazolin-2-yl)phenyl)ureido)-benzamide]	–	–	–	–	–	–
